Test results as given in ChEMBL document CHEMBL4602709 (ACS Med Chem Lett, 2020).

Experiments:
[1] = target: Ephrin type-A receptor 4 (Homo sapiens) (UniProt P54764); assay: Inhibition of EPHA4 (unknown origin) assessed as residual activity at 10 uM incubated for 5 mins in presence of [gamma-33ATP] by scintillation counting based radiometry assay relative to control
[2] = target: Proto-oncogene tyrosine-protein kinase Src (Homo sapiens, UniProt P12931); assay: Inhibition of SRC (unknown origin) assessed as residual activity incubated for 5 mins in presence of [gamma-33ATP] by scintillation counting based radiometry assay
[3] = Cytotoxicity against human THLE3 assessed as reduction in cell viability incubated for 72 hrs by Cell Titer Glo 2.0 reagent based assay; details: THLE3 cells
[4] = Cytotoxicity against HEK293 cells assessed as reduction in cell viability incubated for 72 hrs by Cell Titer Glo 2.0 reagent based assay; details: human
[5] = target: Tyrosine-protein kinase Lck (Homo sapiens, UniProt P06239); assay: Inhibition of LCK (unknown origin) assessed as residual activity incubated for 5 mins in presence of [gamma-33ATP] by scintillation counting based radiometry assay
[6] = target: Serine/threonine-protein kinase Nek6 (Homo sapiens, UniProt Q9HC98); assay: Inhibition of NEK6 (unknown origin) assessed as residual activity incubated for 5 mins in presence of [gamma-33ATP] by scintillation counting based radiometry assay
[7] = target: Voltage-gated inwardly rectifying potassium channel KCNH2 (Homo sapiens, UniProt Q12809); assay: Inhibition of human ERG incubated for 4 hrs by competitive fluorescence tracer binding based assay
[8] = target: T1, Tyrosine-protein kinase ABL1 (Homo sapiens, UniProt P00519); assay: Inhibition of human ABL1 assessed as residual activity using EAIYAAPFAKKK as substrate by [gamma-33P]-ATP assay
[9] = target: Platelet-derived growth factor receptor alpha (Homo sapiens, UniProt P16234); assay: Inhibition of PDGFRalpha (unknown origin) assessed as residual activity incubated for 5 mins in presence of [gamma-33ATP] by scintillation counting based radiometry assay
[10] = target: T1, Tyrosine-protein kinase ABL1; assay: Inhibition of ABL1 (unknown origin) assessed as residual activity incubated for 5 mins in presence of [gamma-33ATP] by scintillation counting based radiometry assay
[11] = target: T2, Mitogen-activated protein kinase kinase kinase kinase 3 (Homo sapiens, UniProt Q8IVH8); assay: Inhibition of MAP4K3 (unknown origin) assessed as residual activity incubated for 5 mins in presence of [gamma-33ATP] by scintillation counting based radiometry assay
T2 sequence (Q8IVH8 whole entry): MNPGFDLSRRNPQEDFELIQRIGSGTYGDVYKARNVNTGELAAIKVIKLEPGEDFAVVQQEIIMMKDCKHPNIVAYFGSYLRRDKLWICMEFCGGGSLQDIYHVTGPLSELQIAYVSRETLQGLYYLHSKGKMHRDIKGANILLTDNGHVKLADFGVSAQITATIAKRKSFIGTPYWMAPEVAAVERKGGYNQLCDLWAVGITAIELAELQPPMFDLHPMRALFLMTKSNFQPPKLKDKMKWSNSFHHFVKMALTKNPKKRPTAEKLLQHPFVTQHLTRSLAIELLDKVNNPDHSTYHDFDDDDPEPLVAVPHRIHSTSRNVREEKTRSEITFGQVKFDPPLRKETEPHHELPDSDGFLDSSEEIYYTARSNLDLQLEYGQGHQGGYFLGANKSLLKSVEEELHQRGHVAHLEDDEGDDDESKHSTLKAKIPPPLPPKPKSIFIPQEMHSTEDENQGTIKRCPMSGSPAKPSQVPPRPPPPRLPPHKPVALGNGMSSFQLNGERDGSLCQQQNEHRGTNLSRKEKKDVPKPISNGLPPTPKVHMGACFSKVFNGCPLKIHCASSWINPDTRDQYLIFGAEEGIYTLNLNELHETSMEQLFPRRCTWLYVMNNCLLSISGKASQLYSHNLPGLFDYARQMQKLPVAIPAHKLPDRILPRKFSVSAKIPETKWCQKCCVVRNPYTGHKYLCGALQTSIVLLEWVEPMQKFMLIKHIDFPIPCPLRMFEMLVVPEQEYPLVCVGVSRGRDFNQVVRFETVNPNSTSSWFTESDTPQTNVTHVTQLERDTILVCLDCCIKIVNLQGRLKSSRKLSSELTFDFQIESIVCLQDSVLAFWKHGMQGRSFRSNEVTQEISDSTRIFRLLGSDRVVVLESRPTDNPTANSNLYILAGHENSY

T1 sequence (P00519 whole entry): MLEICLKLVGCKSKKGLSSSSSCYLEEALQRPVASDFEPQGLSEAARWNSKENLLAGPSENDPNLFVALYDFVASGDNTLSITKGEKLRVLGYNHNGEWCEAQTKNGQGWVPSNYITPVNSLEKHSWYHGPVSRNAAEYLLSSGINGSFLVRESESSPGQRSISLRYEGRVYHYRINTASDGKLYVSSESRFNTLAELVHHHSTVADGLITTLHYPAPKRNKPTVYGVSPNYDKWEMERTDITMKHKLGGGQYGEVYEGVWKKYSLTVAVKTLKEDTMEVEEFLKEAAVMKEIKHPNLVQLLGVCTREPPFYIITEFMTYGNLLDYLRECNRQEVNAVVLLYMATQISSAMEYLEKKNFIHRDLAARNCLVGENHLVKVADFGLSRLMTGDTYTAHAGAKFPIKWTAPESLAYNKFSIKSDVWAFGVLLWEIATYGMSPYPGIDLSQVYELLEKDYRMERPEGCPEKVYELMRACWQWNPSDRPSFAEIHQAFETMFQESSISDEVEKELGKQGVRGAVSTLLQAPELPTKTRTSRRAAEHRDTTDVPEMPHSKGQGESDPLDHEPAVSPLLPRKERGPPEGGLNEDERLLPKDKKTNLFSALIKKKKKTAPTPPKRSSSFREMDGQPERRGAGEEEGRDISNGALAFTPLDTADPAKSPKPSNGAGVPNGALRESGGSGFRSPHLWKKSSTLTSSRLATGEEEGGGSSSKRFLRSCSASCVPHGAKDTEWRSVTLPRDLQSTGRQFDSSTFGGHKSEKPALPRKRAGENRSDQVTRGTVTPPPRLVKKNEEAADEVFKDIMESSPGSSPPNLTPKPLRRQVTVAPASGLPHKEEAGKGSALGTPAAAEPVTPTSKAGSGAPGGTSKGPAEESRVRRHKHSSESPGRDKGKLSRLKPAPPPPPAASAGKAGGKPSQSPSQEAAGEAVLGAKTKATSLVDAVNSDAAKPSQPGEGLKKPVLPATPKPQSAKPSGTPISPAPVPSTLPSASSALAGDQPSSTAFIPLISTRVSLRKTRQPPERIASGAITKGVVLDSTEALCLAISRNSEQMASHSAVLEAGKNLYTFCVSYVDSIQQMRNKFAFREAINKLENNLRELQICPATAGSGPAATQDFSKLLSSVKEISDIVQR
Tyrosine-protein kinase Lck, sequence (P06239 whole entry): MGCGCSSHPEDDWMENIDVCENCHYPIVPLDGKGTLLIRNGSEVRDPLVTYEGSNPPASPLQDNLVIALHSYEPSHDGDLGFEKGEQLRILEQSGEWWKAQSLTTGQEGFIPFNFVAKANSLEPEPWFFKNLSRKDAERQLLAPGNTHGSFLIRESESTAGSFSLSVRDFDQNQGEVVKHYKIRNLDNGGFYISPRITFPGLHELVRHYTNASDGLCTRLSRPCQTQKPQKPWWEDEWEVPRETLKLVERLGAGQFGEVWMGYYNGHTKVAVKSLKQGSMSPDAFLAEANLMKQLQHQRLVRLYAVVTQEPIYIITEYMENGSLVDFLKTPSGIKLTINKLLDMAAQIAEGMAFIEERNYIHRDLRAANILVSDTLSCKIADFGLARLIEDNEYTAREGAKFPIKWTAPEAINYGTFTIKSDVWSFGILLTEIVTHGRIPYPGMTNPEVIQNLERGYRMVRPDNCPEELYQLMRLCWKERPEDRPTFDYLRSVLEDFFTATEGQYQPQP
Ephrin type-A receptor 4 (Homo sapiens), sequence (P54764 whole entry, looked up): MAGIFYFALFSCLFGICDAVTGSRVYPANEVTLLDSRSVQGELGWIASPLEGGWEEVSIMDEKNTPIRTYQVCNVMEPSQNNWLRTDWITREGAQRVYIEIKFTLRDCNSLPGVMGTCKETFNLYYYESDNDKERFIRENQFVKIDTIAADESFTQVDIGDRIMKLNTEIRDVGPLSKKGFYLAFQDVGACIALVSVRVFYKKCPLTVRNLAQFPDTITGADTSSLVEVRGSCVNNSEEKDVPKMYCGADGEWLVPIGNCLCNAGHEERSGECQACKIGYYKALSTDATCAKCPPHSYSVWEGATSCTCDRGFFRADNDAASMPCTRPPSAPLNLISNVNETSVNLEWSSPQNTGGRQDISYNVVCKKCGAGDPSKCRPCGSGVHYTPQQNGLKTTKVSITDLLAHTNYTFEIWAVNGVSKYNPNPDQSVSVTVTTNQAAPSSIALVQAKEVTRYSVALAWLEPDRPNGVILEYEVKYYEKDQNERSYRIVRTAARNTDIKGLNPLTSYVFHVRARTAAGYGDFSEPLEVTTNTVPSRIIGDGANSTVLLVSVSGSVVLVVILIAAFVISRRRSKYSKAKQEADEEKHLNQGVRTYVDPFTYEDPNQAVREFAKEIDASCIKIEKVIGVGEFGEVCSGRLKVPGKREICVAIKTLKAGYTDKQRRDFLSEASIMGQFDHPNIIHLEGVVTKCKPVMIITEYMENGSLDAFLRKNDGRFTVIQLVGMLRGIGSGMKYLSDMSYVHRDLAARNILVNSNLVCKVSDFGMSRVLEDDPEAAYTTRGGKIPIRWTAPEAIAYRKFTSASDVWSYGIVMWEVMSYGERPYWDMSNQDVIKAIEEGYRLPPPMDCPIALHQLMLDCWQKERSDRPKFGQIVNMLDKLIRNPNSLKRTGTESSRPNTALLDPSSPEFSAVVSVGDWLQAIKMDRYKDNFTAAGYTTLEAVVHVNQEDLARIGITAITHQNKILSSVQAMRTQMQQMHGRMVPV
Platelet-derived growth factor receptor alpha, sequence (P16234 whole entry): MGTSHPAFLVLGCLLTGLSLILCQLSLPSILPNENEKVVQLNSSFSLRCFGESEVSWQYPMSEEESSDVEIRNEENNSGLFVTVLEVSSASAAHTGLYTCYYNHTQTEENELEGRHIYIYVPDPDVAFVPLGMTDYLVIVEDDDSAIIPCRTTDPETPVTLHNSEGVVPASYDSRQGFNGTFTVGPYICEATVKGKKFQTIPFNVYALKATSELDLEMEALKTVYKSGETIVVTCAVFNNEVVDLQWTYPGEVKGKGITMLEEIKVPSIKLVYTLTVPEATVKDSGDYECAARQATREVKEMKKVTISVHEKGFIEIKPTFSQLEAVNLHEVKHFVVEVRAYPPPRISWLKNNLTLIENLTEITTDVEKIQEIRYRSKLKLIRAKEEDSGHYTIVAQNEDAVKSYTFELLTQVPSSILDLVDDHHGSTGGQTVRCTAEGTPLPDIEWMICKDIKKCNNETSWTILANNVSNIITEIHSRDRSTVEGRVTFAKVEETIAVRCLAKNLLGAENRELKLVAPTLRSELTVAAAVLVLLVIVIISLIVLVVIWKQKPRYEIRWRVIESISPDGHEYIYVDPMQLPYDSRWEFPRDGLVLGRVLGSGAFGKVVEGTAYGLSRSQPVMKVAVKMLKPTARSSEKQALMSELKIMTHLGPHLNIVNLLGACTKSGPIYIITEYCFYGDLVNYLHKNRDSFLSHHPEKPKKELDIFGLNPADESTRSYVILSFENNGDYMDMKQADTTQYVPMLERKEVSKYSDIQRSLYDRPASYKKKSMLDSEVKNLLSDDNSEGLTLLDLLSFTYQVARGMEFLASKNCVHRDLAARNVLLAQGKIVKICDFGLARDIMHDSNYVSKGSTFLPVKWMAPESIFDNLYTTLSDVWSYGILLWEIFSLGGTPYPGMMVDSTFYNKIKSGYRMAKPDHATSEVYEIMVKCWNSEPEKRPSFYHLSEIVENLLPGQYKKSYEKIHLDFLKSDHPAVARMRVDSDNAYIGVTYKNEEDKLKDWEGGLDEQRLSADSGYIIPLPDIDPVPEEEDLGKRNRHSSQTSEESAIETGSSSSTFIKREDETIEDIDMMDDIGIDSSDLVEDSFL
Serine/threonine-protein kinase Nek6, sequence (Q9HC98 whole entry): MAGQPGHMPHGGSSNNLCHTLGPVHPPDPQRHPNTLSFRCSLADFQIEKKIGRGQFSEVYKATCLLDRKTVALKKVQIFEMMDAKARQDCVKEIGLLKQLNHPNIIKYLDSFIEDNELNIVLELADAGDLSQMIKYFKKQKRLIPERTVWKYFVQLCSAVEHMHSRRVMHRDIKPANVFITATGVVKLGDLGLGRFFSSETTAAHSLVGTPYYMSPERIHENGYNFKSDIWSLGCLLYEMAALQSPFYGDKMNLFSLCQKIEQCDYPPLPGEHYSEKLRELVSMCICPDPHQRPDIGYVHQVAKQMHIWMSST
Proto-oncogene tyrosine-protein kinase Src, sequence (P12931 2-536 limits assumed): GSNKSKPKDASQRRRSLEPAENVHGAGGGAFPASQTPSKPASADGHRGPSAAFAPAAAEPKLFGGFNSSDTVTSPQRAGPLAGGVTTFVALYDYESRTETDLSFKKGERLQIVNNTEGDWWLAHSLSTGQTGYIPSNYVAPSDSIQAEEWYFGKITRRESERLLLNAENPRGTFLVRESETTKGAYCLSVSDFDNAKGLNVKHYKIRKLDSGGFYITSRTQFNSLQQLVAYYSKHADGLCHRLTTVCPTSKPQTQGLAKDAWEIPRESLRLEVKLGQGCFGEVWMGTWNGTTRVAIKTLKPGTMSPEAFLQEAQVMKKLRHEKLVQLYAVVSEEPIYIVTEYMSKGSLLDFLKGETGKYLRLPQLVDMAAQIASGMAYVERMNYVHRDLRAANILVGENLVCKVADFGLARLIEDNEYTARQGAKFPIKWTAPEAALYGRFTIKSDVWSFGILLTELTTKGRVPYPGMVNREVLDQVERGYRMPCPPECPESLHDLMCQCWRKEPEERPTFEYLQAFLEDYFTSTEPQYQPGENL

Cc1ccc(C(=O)Nc2ccc(CN3Cc4cn[nH]c4C3)c(Cl)c2)cc1C#Cc1cnc2cccnn12
Activity [1]: 2% | IC50 [2]: 431 nM | CC50 at 72 h [3]: > 50000 nM | CC50 at 72 h [4]: > 50000 nM | IC50 [5]: 26.1 nM | IC50 [6]: 5350 nM | IC50 [7]: 12100 nM | IC50 [8]: 8.31 nM | IC50 [9]: 2 nM | IC50 [10]: 1.3 nM | IC50 [11]: 240 nM
